Calls of active or inactive are those of the source. Rule as the data show it, for most assays here: actives have a measured Kd and inactives only a lower limit.
Experiments:
[1] = biological target: T1, Serine/threonine-protein kinase A-Raf (Homo sapiens, UniProt P10398)
T1 sequence (P10398 whole entry): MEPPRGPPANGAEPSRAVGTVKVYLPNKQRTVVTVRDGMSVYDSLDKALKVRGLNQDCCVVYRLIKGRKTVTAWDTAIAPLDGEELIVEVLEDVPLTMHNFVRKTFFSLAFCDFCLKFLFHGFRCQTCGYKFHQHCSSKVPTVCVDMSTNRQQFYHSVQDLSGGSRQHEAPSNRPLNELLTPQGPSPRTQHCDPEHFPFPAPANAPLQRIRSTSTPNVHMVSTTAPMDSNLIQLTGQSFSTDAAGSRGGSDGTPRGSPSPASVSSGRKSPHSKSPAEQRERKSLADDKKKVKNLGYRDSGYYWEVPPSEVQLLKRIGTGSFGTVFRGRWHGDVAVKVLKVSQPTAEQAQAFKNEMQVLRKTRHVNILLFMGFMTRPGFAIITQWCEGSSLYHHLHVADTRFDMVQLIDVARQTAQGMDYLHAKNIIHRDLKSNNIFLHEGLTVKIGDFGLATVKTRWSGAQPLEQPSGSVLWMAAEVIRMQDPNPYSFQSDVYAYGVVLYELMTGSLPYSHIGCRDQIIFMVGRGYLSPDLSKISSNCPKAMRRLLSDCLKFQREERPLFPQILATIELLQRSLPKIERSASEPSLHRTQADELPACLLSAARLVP

[2] = biological target: Bone morphogenetic protein receptor type-1B (Homo sapiens, UniProt O00238)
Chain of Bone morphogenetic protein receptor type-1B (O00238 whole entry): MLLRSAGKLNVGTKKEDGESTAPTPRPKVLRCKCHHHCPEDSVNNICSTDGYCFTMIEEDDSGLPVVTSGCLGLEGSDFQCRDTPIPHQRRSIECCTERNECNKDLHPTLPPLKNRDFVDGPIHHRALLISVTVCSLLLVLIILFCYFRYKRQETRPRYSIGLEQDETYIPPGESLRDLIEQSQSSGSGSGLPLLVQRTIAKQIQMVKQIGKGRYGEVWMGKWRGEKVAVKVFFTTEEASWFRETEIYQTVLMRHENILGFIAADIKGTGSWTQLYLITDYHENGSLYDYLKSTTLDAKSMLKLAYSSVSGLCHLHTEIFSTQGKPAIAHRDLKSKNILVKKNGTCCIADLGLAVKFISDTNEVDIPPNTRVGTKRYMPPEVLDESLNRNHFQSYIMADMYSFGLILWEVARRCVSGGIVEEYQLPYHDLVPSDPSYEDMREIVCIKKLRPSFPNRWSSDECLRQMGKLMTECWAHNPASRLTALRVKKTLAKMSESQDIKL

[3] = biological target: T2, Bone morphogenetic protein receptor type-2 (Homo sapiens, UniProt Q13873)
T2 sequence (Q13873 whole entry): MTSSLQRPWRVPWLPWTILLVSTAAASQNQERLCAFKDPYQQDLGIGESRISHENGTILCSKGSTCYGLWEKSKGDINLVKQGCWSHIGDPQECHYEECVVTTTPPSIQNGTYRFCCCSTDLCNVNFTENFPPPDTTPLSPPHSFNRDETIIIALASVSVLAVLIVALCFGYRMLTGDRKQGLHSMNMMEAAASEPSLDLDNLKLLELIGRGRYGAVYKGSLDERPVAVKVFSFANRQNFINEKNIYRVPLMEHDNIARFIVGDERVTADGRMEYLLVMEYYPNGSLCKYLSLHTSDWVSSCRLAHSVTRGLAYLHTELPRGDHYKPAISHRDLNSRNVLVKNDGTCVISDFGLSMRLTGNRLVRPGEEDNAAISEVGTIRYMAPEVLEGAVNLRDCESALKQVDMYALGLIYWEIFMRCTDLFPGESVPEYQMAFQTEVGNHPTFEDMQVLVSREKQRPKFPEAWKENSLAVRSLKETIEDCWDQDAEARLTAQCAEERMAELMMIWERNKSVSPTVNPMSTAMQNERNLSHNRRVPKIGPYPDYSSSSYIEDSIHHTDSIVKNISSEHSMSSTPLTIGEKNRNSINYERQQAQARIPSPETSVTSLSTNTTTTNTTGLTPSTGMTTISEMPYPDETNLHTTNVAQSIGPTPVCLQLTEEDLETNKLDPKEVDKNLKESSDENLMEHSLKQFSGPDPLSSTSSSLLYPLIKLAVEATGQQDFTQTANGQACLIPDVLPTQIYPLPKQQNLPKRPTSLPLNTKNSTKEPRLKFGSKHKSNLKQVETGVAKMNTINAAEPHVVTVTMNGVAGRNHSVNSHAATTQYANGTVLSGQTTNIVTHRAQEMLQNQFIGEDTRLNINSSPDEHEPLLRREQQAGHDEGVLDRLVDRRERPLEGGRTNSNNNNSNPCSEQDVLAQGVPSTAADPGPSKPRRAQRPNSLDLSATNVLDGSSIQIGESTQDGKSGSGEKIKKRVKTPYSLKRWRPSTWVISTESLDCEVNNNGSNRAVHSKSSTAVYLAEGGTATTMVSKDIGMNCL

[4] = biological target: Tyrosine-protein kinase BTK (Homo sapiens, UniProt Q06187)
Chain of Tyrosine-protein kinase BTK (Q06187 whole entry, canonical isoform): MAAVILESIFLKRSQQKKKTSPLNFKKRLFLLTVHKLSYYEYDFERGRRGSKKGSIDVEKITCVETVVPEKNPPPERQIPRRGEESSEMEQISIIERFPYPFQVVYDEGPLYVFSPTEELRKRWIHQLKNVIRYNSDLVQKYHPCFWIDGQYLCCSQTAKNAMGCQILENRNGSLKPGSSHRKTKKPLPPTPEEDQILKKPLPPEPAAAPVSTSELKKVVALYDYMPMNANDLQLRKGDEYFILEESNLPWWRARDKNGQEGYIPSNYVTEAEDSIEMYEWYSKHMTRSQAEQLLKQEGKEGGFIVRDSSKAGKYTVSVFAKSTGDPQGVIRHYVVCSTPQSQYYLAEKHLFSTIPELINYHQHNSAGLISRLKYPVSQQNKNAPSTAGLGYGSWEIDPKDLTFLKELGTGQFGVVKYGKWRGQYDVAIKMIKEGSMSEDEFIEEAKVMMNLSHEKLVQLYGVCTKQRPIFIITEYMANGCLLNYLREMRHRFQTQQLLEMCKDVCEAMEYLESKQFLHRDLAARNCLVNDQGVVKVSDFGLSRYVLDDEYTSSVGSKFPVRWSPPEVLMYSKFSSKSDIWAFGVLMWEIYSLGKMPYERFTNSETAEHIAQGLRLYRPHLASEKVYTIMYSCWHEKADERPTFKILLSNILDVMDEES

[5] = biological target: Casein kinase I isoform delta (Homo sapiens, UniProt P48730)
Chain of Casein kinase I isoform delta (P48730 whole entry, canonical isoform): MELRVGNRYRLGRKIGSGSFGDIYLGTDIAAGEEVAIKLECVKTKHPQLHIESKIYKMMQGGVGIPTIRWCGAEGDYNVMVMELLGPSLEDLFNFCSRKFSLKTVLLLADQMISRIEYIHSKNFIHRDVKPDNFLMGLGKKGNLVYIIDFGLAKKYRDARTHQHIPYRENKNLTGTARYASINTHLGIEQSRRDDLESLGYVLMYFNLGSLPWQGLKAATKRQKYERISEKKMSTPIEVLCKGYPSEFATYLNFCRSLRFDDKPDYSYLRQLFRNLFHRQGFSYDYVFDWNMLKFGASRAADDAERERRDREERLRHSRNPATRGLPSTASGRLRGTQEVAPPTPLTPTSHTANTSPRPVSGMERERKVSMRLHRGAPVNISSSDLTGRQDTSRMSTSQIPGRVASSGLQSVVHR

[6] = biological target: Serine/threonine-protein kinase/endoribonuclease IRE1 (Homo sapiens, UniProt O75460)
Chain of Serine/threonine-protein kinase/endoribonuclease IRE1 (O75460 whole entry): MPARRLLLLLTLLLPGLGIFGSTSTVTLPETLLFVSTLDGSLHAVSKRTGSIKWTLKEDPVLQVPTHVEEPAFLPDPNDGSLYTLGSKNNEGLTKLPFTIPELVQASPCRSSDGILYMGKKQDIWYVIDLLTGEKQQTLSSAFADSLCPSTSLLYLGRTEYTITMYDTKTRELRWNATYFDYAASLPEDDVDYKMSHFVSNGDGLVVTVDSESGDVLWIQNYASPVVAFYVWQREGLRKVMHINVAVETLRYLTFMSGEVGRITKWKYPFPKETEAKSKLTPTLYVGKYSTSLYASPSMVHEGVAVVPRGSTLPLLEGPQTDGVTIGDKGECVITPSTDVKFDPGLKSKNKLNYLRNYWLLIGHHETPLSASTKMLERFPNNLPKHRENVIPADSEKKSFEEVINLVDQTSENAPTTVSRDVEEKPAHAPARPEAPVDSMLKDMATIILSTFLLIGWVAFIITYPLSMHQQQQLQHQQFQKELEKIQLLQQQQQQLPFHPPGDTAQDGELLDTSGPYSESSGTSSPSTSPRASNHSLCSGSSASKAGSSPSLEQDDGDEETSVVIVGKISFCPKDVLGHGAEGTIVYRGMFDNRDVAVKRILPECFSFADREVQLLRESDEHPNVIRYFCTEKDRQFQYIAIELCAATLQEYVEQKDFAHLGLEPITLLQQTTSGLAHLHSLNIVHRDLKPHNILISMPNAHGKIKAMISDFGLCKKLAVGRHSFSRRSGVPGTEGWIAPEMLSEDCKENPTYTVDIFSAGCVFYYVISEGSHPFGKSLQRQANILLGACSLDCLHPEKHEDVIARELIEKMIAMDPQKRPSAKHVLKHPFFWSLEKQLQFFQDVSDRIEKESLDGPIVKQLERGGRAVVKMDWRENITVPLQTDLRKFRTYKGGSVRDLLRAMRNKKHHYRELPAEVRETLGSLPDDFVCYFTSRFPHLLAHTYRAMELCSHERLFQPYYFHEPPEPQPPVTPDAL

[7] = biological target: Mitogen-activated protein kinase 14 (Homo sapiens, UniProt Q16539)
Chain of Mitogen-activated protein kinase 14 (Q16539 whole entry): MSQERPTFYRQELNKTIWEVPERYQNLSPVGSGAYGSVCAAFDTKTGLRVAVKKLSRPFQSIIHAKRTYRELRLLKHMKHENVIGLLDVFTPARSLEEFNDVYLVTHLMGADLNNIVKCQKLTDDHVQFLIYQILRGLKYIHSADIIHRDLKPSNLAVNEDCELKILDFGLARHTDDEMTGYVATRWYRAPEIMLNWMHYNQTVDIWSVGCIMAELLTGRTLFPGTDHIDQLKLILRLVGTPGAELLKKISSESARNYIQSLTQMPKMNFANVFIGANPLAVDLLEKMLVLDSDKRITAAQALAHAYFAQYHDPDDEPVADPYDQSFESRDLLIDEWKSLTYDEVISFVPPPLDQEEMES

[8] = biological target: T3, Tyrosine--tRNA ligase, cytoplasmic (Homo sapiens, UniProt P54577)
T3 sequence (P54577 whole entry): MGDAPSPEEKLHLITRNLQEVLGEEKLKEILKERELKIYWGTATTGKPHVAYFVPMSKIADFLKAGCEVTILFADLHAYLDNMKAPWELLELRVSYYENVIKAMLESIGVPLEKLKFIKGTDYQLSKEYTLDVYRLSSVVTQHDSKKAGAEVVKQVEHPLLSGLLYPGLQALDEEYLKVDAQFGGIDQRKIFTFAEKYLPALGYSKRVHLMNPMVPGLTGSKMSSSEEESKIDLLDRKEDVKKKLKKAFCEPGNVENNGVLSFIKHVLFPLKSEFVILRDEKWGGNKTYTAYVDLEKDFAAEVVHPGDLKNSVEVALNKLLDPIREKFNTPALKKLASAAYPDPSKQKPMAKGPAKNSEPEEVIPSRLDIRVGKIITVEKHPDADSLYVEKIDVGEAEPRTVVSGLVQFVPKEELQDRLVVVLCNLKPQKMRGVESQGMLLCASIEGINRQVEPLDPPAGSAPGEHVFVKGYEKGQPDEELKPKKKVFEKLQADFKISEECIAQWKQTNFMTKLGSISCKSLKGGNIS
Also: in the data inactive means no Kd found up to 30 µM.

Row | SMILES | Kd [1] | Kd [2] | Kd [3] | Kd [4] | Kd [5] | Kd [6] | Kd [7] | Kd [8]
1 | Cc1cc(Nc2ncc(Cl)c(Nc3ccccc3S(=O)(=O)C(C)C)n2)c(OC(C)C)cc1C1CCNCC1 [CERITINIB] | > 30 µM (inactive) | > 30 µM (inactive) | > 30 µM (inactive) | > 30 µM (inactive) | > 30 µM (inactive) | > 30 µM (inactive) | > 30 µM (inactive) | > 30 µM (inactive)
2 | COc1c(OCCCN2CCOCC2)ccc2c1N=C(NC(=O)c1cnc(N)nc1)N1CCN=C21 [COPANLISIB] | > 30 µM (inactive) | > 30 µM (inactive) | > 30 µM (inactive) | > 30 µM (inactive) | > 30 µM (inactive) | > 30 µM (inactive) | > 30 µM (inactive) | > 30 µM (inactive)
3 | COCC(=O)NC/C=C/c1ccc2ncnc(Nc3ccc(Oc4ccc(C)nc4)c(C)c3)c2c1 [CP-724714] | > 30 µM (inactive) | > 30 µM (inactive) | > 30 µM (inactive) | > 30 µM (inactive) | > 30 µM (inactive) | > 30 µM (inactive) | > 30 µM (inactive) | > 30 µM (inactive)
4 | C#Cc1cccc(Nc2ncnc3cc(OC)c(OCCCCCCC(=O)NO)cc23)c1 [CUDC-101] | > 30 µM (inactive) | > 30 µM (inactive) | > 30 µM (inactive) | > 30 µM (inactive) | > 30 µM (inactive) | > 30 µM (inactive) | > 30 µM (inactive) | > 30 µM (inactive)
5 | O=C(Nc1nc2cccc(-c3ccc(CN4CCS(=O)(=O)CC4)cc3)n2n1)C1CC1 [FILGOTINIB] | > 30 µM (inactive) | > 30 µM (inactive) | > 30 µM (inactive) | > 30 µM (inactive) | > 30 µM (inactive) | > 30 µM (inactive) | > 30 µM (inactive) | > 30 µM (inactive)
6 | Cc1cccc(-c2nn3c(c2-c2ccnc4ccc(C(N)=O)cc24)CCC3)n1 [GALUNISERTIB] | > 30 µM (inactive) | > 30 µM (inactive) | > 30 µM (inactive) | > 30 µM (inactive) | 16.1 µM (active) | > 30 µM (inactive) | > 30 µM (inactive) | > 30 µM (inactive)
7 | COc1ccc(S(=O)(=O)N(C(C)=O)c2ccccc2/C=C/c2cc[n+]([O-])cc2)cc1 [HMN-214] | > 30 µM (inactive) | > 30 µM (inactive) | > 30 µM (inactive) | > 30 µM (inactive) | > 30 µM (inactive) | > 30 µM (inactive) | > 30 µM (inactive) | > 30 µM (inactive)
8 | O=C(Nc1cc(C(F)(F)F)cc(C(F)(F)F)c1)c1cc(Cl)ccc1O [IMD-0354] | > 30 µM (inactive) | > 30 µM (inactive) | > 30 µM (inactive) | > 30 µM (inactive) | > 30 µM (inactive) | > 30 µM (inactive) | > 30 µM (inactive) | > 30 µM (inactive)
9 | CNC(=O)c1cccc2cc(Oc3ccnc4cc(OCC5(N)CC5)c(OC)cc34)ccc12 [LUCITANIB] | > 30 µM (inactive) | > 30 µM (inactive) | > 30 µM (inactive) | > 30 µM (inactive) | > 30 µM (inactive) | > 30 µM (inactive) | > 30 µM (inactive) | > 30 µM (inactive)
10 | CNC(=O)c1nn(C)c2c1C(C)(C)Cc1cnc(Nc3ccc(N4CCN(C)CC4)cc3)nc1-2 [MILCICLIB] | > 30 µM (inactive) | > 30 µM (inactive) | > 30 µM (inactive) | > 30 µM (inactive) | 0.236 µM (active) | > 30 µM (inactive) | > 30 µM (inactive) | > 30 µM (inactive)
11 | NC1(c2ccc(-c3nc4ccn5c(=O)[nH]nc5c4cc3-c3ccccc3)cc2)CCC1 [MK-2206] | > 30 µM (inactive) | > 30 µM (inactive) | > 30 µM (inactive) | > 30 µM (inactive) | > 30 µM (inactive) | > 30 µM (inactive) | > 30 µM (inactive) | > 30 µM (inactive)
12 | CN(C[C@@H]1COCCO1)S(=O)(=O)Nc1ccc2ccc3ncc(-c4cnn(C)c4)cc3c(=O)c2c1 [MK-2461] | > 30 µM (inactive) | > 30 µM (inactive) | > 30 µM (inactive) | > 30 µM (inactive) | > 30 µM (inactive) | > 30 µM (inactive) | > 30 µM (inactive) | > 30 µM (inactive)
13 | Cn1cc(-c2cnc3ccc4ccc(CS(=O)(=O)NCc5ccccn5)cc4c(=O)c3c2)cn1 [MK-8033] | > 30 µM (inactive) | > 30 µM (inactive) | > 30 µM (inactive) | > 30 µM (inactive) | > 30 µM (inactive) | > 30 µM (inactive) | > 30 µM (inactive) | > 30 µM (inactive)
14 | FC(F)(F)c1ccc(/C=C/c2nc(COc3ccc(CCCCn4ccnn4)cc3)co2)cc1 [MUBRITINIB] | > 30 µM (inactive) | > 30 µM (inactive) | > 30 µM (inactive) | > 30 µM (inactive) | > 30 µM (inactive) | > 30 µM (inactive) | > 30 µM (inactive) | > 30 µM (inactive)
15 | COc1ncc(-c2ccc3nccc(-c4ccnnc4)c3c2)cc1NS(=O)(=O)c1ccc(F)cc1F [OMIPALISIB] | > 30 µM (inactive) | > 30 µM (inactive) | > 30 µM (inactive) | > 30 µM (inactive) | > 30 µM (inactive) | > 30 µM (inactive) | > 30 µM (inactive) | > 30 µM (inactive)
16 | CCOc1cc2ncc(C#N)c(Nc3ccc(F)c(Cl)c3)c2cc1NC(=O)/C=C/CN(C)C [PELITINIB] | > 30 µM (inactive) | > 30 µM (inactive) | > 30 µM (inactive) | 0.514 µM (active) | 3.88 µM (active) | > 30 µM (inactive) | > 30 µM (inactive) | > 30 µM (inactive)
17 | Cc1nc(Nc2n[nH]c3c2CN(C(=O)N[C@H](CN(C)C)c2ccccc2)C3(C)C)c2sccc2n1 [PF-03758309] | > 30 µM (inactive) | > 30 µM (inactive) | > 30 µM (inactive) | 1.23 µM | > 30 µM (inactive) | > 30 µM (inactive) | > 30 µM (inactive) | > 30 µM (inactive)
18 | Cc1cnc(NC(=O)Nc2cc(Br)c(C)cc2OC[C@@H]2CNCCO2)cn1 [RABUSERTIB] | > 30 µM (inactive) | > 30 µM (inactive) | > 30 µM (inactive) | > 30 µM (inactive) | > 30 µM (inactive) | > 30 µM (inactive) | > 30 µM (inactive) | > 30 µM (inactive)

Reference: ChEMBL document CHEMBL3991601, “The target landscape of clinical kinase drugs” (Science, 2017)
